Test results reported in US5945440A, “Indolocarbazole imides and the use thereof” (priority 1992, dated 1999).

How the values were obtained:
[1] = target: T1, MLC kinase (myosin light-chain kinase) (Gallus gallus, UniProt P11799); assay: inhibition of MLC kinase, in vitro enzyme test (32P phosphate incorporation); type: biochemical, chicken (stomach); settings: for IC50: 1 nM MLC kinase, 250 μM ATP, pH 7.2, 20 minutes at 30° C., read-out: inhibition of the protein kinases, MLC-kinase IC50; for MLC kinase inhibition, in words: potency and selectivity vs protein kinase C; for ratio of IC50 C-kinase/IC50 MLC-kinase: selectivity factor calculated from the IC50 values
T1 construct: MLC kinase was purified from chicken stomach; from tissue; host or cells: chicken stomach (gizzard smooth muscle)
T1 sequence (P11799 935-1906): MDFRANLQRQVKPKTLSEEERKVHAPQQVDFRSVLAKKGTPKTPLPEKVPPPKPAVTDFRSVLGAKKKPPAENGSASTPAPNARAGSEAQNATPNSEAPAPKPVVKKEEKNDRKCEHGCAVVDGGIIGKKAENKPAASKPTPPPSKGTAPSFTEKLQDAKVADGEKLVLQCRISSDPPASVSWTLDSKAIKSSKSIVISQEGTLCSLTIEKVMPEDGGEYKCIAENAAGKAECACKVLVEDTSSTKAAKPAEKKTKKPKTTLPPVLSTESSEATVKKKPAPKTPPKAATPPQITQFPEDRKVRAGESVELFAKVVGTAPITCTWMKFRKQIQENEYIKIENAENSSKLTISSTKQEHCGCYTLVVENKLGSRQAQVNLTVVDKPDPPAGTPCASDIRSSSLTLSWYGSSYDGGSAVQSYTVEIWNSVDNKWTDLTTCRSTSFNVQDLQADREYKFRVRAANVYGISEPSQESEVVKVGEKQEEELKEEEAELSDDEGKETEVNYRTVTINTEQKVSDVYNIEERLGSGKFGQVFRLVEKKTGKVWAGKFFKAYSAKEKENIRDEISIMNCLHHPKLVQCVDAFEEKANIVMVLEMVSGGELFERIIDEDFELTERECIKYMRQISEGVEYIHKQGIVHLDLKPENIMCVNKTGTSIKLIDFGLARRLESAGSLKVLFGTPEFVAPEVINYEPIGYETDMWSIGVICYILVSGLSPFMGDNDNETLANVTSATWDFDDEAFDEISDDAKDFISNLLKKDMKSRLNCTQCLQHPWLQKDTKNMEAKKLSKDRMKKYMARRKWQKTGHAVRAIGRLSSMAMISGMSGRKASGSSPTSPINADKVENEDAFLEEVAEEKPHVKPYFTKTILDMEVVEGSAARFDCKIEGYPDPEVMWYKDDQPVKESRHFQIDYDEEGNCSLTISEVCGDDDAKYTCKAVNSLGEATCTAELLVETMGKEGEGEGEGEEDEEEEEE

protein kinase C = assay: inhibition of protein kinase C, enzyme test; type: biochemical; settings: read-out: inhibition of the protein kinases, C-kinase IC50
Procedure: In order to ascertain whether it is a question of a selective inhibition of MLC kinase, the compounds were also investigated in other enzyme tests for protein kinase, including tests for protein kinase C. The results from the PKC test are also given in the following Table I. Furthermore, the Table contains selectivity factors which were calculated by the determination of the ratios of the IC50 values.

[2] = system: narcotised, spontaneously hypertensive rat (SHR); assay: anti-hypertensive action in narcotised spontaneously hypertensive rats, i.v.; type: in vivo; settings: for reduction of the average arterial blood pressure / reduction of the heart frequency: 60 minutes after administration, average ± SD; for anti-hypertensive action, in words / influencing of the heart frequency, in words: i.v.
Procedure: As test model, there was used the narcotised, spontaneously hypertensive rat (SHR). After intravenous administration of the inhibitor of MLC kinase, in each case 60 minutes after the administration of the compound, there were found the reductions of the average arterial blood pressure set out in the following Table 2.

human tumour cells [3] = assay: colony test, human tumour cells in soft agar (tumour types in general); type: cell-based; settings: certain tumour types
Procedure: For this test, human tumour cells are kept as solid tumour by passage on the nude mouse. For the test, an individual cell suspension is prepared and the cells then plated out in dishes containing soft agar. Under these conditions, the tumour cells multiply and form colonies.

HIV = HIV production in PMA-stimulated promonocytic U1 cells (both methods); type: cell-based; settings: 1 hour before PMA stimulation and 48 hours after
Procedure: In the case of the establishment of this hypothesis, use was made of the promonocytic cell line U1.
Without stimulation, no formation of HIV can be measured in these cells but, after 15 minutes stimulation with the phorbol ester PMA, it results in a massive production of HIV.
Some of the PKC inhibitors according to the present invention were investigated in this model. As a measure for the HIV production, either with the help of an ELISA test there was determined the viral protein p24 or with the help of an indicator cell, there was measured the HIV-induced formation of syncytia (giant cells produced by the fusion of individual cells).

human tumour cells [4] = settings: general statement on the colony test; cited from earlier work
protein kinases = settings: Bio/Technology, 1990, 8, 132-135; cited from earlier work
[5] = literature / other filings; cited from earlier work

| IC50 [1] | ratio of IC50 C-kinase/IC50 MLC-kinase [1] | IC50 (protein kinase C) | SMILES | MLC kinase inhibition, in words [1] | reduction of the average arterial blood pressure ([2]; 3 mg/kg i.v.) | reduction of the heart frequency ([2]; 3 mg/kg i.v.) | reduction of the average arterial blood pressure ([2]; 10 mg/kg i.v.) | reduction of the heart frequency ([2]; 10 mg/kg i.v.) | anti-hypertensive action, in words [2] | influencing of the heart frequency, in words [2] | also measured |
| --- | --- | --- | --- | --- | --- | --- | --- | --- | --- | --- | --- |
| 23 nM | > 435 | > 10000 nM | Cn1c2ccccc2c2c3c(c4c5ccccc5[nH]c4c21)C(=O)NC3=O [Example 7c, 6,7,12,13-tetrahydro-12-methyl-5,7-dioxo-5H-indolo[2,3-a]pyrrolo[3,4-c]carbazole] | potent and selective inhibitors of MLC kinase | 10 ± 7% | 7 ± 3% | 23 ± 2% | 8 ± 2% | dosage-dependent anti-hypertensive action could be demonstrated | scarcely observable | – |
| 110 nM | 0.4 | 42 nM | CC(C)N(CCCn1c2ccccc2c2c3c(c4c5ccccc5[nH]c4c21)C(=O)NC3=O)C(C)C [Example 7g, 12-(3-diisopropylaminopropyl)-6,7,12,13-tetrahydro-5,7-dioxo-5H-indolo[2,3-a]pyrrolo[3,4-c]carbazole] | – | – | – | – | – | – | – | inhibition of tumour cell growth, in words (human tumour cells [3]): the growth of the tumour cells can be inhibited depending upon the concentration |
| – | – | – | CC1CNCCN1S(=O)(=O)c1cccc2cnccc12 (stereo not shown) [Example H-7, reference compound] | – | – | – | – | – | – | – | suppression of HIV production, in words (HIV): the production of HIV can be completely suppressed |
| – | – | – | COc1cccc2c1C(=O)c1c(O)c3c(c(O)c1C2=O)C[C@@](O)(C(=O)CO)C[C@@H]3O[C@H]1C[C@H](N)[C@H](O)[C@H](C)O1 [adriamycin] | – | – | – | – | – | – | – | prevention of colony formation, in words (human tumour cells [4]): able to prevent this colony formation |
| – | – | – | CO[C@H]1[C@H](O)[C@@H](O)[C@H](n2c3c(Cl)cccc3c3c4c(c5c6cccc(Cl)c6[nH]c5c32)C(=O)NC4=O)O[C@@H]1CO [rebeccamycin] | – | – | – | – | – | – | – | inhibition of protein kinases, in words (protein kinases): do not inhibit protein kinases; anti-tumour action, in words [5]: anti-tumour action |

| SMILES | IC50 [1] | ratio of IC50 C-kinase/IC50 MLC-kinase [1] | IC50 (protein kinase C) | MLC kinase inhibition, in words [1] | reduction of the average arterial blood pressure ([2]; 3 mg/kg i.v.) | reduction of the heart frequency ([2]; 3 mg/kg i.v.) | reduction of the average arterial blood pressure ([2]; 10 mg/kg i.v.) | reduction of the heart frequency ([2]; 10 mg/kg i.v.) | anti-hypertensive action, in words [2] | influencing of the heart frequency, in words [2] | also measured |
| --- | --- | --- | --- | --- | --- | --- | --- | --- | --- | --- | --- |
| COc1ccc2[nH]c3c4[nH]c5ccc(OC)cc5c4c4c(c3c2c1)C(=O)NC4=O [Example 11d, 6,7,12,13-tetrahydro-3,9-dimethoxy-5,7-dioxo-5H-indolo[2,3-a]pyrrolo[3,4-c]carbazole] | 21 nM | > 476 | > 10000 nM | potent and selective inhibitors of MLC kinase | 16 ± 3% | 6 ± 2% | 35 ± 5% | 10 ± 3% | dosage-dependent anti-hypertensive action could be demonstrated | scarcely observable | – |
